Among the data in patent publication US20070071686A1, “Liquid preparation containing tobramycin” (Pari GmbH, priority 2003, published 2007) are viscosity values, retold here.

The series can be described thus: Physicochemical characterisation of tobramycin solutions (pH, osmolality, dynamic viscosity, surface tension). The method, then:
Thus, aqueous solutions of tobramycin with a pH of 6.0 to 6.5 have a 50% greater viscosity (about 2.9 mPa·s) at a concentration of active agent of 180 mg/ml compared to a solution with 100 mg/ml (about 1.8 mPa·s). […] Under standard conditions, the preparations according to the present invention have a viscosity of about 1.4 to 2.3 mPa·s, and preferably a viscosity in the range of about 1.6 to 2.0 mPa·s. A viscosity of about 1.8 mPa·s is most preferred.
11.08 g of tobramycin, 5.41 g of sulfuric acid (96%), 0.2 g of sodium chloride and 90.95 g of water for injection are used as starting materials. All steps are carried out under aseptic conditions and under nitrogen gas. The water is provided first, to which the sulfuric acid is added. Then sodium chloride and the active agent are added one after the other. The mixture is stirred until complete dissolution of all solid components as determined by visual control. This yields about 100 ml of a solution which has a pH of about 6.0, an osmolality of about 0.22 Osmol/l, a dynamic viscosity of about 1.9 mPa·s and a surface tension of about 71 mN/m. This solution is filtered to sterility and filled into an infusion bottle with a volume of 100 ml. This bottle is tightly closed with a pierceable elastomer stopper and secured with an aluminium cap.
10.88 g of tobramycin, 5.41 g of sulfuric acid (96%), 0.2 g sodium chloride, 0.1 g Tween® 80 and 90.95 g of water for injection are used as starting materials. All steps take place under aseptic conditions and nitrogen gas. The water is provided first to which the sulfuric acid is added. Subsequently, tobramycin is added and dissolved at room temperature. Sodium chloride and Tween® are added to this solution. The mixture is stirred until a clear solution is formed. This yields about 100 ml of a solution which has a pH of about 6.2, an osmolality of about 0.22 Osmol/l, a dynamic viscosity of about 1.9 mPa·s and a surface tension of about 43 mN/m. The solution is filtered to sterility and filled aseptically into single dose containers of polypropylene at 2 ml each. […]

`NC[C@H]1O[C@H](O[C@H]2[C@H](O)[C@@H](O[C@H]3O[C@H](CO)[C@@H](O)[C@H](N)[C@H]3O)[C@H](N)C[C@@H]2N)[C@H](N)C[C@@H]1O` [tobramycin, O-3-amino-3-desoxy-α-D-glucopyranosyl(1→4)-O-[2,6-diamino-2,3,6-tridesoxy-α-D-ribo-hexopyranosyl-(1→6)]-2-deoxystreptamine]: the viscosity entry is given as “about 1.8 mPa·s” (aqueous solution, pH 6.0 to 6.5, 100 mg/ml); “about 2.9 mPa·s” (aqueous solution, pH 6.0 to 6.5, 180 mg/ml); “about 2.1 mPa·s” (comparable aqueous solution, 120 mg/ml).
